Our source for the inhibition and IC50 values is patent US20260015350A1, “AZAQUINAZOLINE PAN-KRAS INHIBITORS” (Mirati Therapeutics, Inc., priority 2022, published 2026).

In test [1] the target is T1, KRas^WT (Homo sapiens, UniProt P01116).
T1 construct: Biotinylated KRas (corresponding to amino acids 1-169, produced at Accelegan Inc.); biotin (biotinylated); purchased Accelegan Inc
The test can be described thus: KRas binding assay (TR-FRET tracer displacement), KRas WT. Conditions: for IC50: TR-FRET tracer displacement, KRas WT.

Test [2] deals with T2, KRas^G12A (Homo sapiens, UniProt P01116, G12A).
T2 construct: Biotinylated KRas (corresponding to amino acids 1-169, produced at Accelegan Inc.); biotin (biotinylated); purchased Accelegan Inc
Briefly: KRas binding assay (TR-FRET tracer displacement), KRas G12A. Conditions: for IC50: TR-FRET tracer displacement, KRas G12A. For orientation: Time-resolved FRET reads energy transfer from a long-lived donor to a nearby acceptor.

Test [3] has as its target T3, KRas^G12C (Homo sapiens, UniProt P01116, G12C).
T3 construct: Biotinylated KRas (corresponding to amino acids 1-169, produced at Accelegan Inc.); biotin (biotinylated); purchased Accelegan Inc
Briefly: KRas binding assay (TR-FRET tracer displacement), KRas G12C. Conditions: for IC50: TR-FRET tracer displacement, KRas G12C.

The target of test [4] is T4, KRas^G12D (Homo sapiens, UniProt P01116, G12D).
T4 construct: Biotinylated KRas (corresponding to amino acids 1-169, produced at Accelegan Inc.); biotin (biotinylated); purchased Accelegan Inc
Briefly: KRas binding assay (TR-FRET tracer displacement), KRas G12D.

Test [5] has as its target T5, KRas^G12R (Homo sapiens, UniProt P01116, G12R).
T5 construct: Biotinylated KRas (corresponding to amino acids 1-169, produced at Accelegan Inc.); biotin (biotinylated); purchased Accelegan Inc
Briefly: KRas binding assay (TR-FRET tracer displacement), KRas G12R.

The target in test [6] is T6, KRas^G12S (Homo sapiens, UniProt P01116, G12S).
T6 construct: Biotinylated KRas (corresponding to amino acids 1-169, produced at Accelegan Inc.); biotin (biotinylated); purchased Accelegan Inc
Briefly: KRas binding assay (TR-FRET tracer displacement), KRas G12S. Conditions: for IC50: TR-FRET tracer displacement, KRas G12S.

In test [7] the target is T7, KRas^G12V (Homo sapiens, UniProt P01116, G12V).
T7 construct: Biotinylated KRas (corresponding to amino acids 1-169, produced at Accelegan Inc.); biotin (biotinylated); purchased Accelegan Inc
The test can be described thus: KRas binding assay (TR-FRET tracer displacement), KRas G12V.

In test [8] the target is T8, KRas^G13D (Homo sapiens, UniProt P01116, G13D).
T8 construct: Biotinylated KRas (corresponding to amino acids 1-169, produced at Accelegan Inc.); biotin (biotinylated); purchased Accelegan Inc
The test can be described thus: KRas binding assay (TR-FRET tracer displacement), KRas G13D. Conditions: for IC50: TR-FRET tracer displacement, KRas G13D.

Test [9] addresses T9, KRas^Q61H (Homo sapiens, UniProt P01116, Q61H).
T9 construct: Biotinylated KRas (corresponding to amino acids 1-169, produced at Accelegan Inc.); biotin (biotinylated); purchased Accelegan Inc
The test can be described thus: KRas binding assay (TR-FRET tracer displacement), KRas Q61H. To be noted: for IC50: TR-FRET tracer displacement, KRas Q61H.

Test [10] concerns KRas-mediated phosphorylation of ERK in MKN1 cells. Briefly: Inhibition of KRas-mediated phosphorylation of ERK (Cisbio HTRF pERK), MKN1 cells. To be noted: Homo sapiens, MKN-1. It counts as cell-based. In outline:
(§1)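 Phospho-ERK is quantified by HTRF with the Advanced pERK kit. Cells go in at 6,000/well in RPMI plus 10% FBS overnight at 37° C. under 5% CO2, with a 4-hour covered room-temperature incubation ahead of the read.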

Test [11] relates to KRas-mediated phosphorylation of ERK in PSN1 cells. The test can be described thus: Inhibition of KRas-mediated phosphorylation of ERK (Cisbio HTRF pERK), PSN1 cells. Conditions: Homo sapiens. It counts as cell-based. In short, it runs like this:
as §1

The subject of test [12] is KRas-mediated phosphorylation of ERK in AsPC-1 cells. The test can be described thus: Inhibition of KRas-mediated phosphorylation of ERK (Cisbio HTRF pERK), AsPC-1 cells. In kind it is cell-based. Conditions: Homo sapiens, ASPC1, AsPC-1 cells; HTRF pERK. In outline:
(§2)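 A cell-based HTRF pERK assay: ten-point, threefold titrations beginning at 10 uM were applied for 3 hrs, with 0.2 uM Trametinib wells as the minimum control. Cells were lysed cold, and lysate was incubated with the antibody pair for 2 hrs before reading.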

Test [13] deals with KRas-mediated phosphorylation of ERK in H727 cells. The test can be described thus: Inhibition of KRas-mediated phosphorylation of ERK (Cisbio HTRF pERK), H727 cells. Conditions: Homo sapiens, NCI-H727, H727 cells; HTRF pERK. In kind it is cell-based. In outline:
as §2

Test [14] concerns KRas-mediated phosphorylation of ERK in A549 cells. The test can be described thus: Inhibition of KRas-mediated phosphorylation of ERK (Cisbio HTRF pERK), A549 cells. It counts as cell-based. To be noted: Homo sapiens; for IC50: HTRF pERK. In outline:
(§3)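 Cells were seeded at 6,000 per well and treated for 3 hrs with compound in a 10-dose, 3-fold series from 10 uM (0.8% final DMSO), with 0.2 uM Trametinib as Min control. Lysates made at 4° C over 40 mins were incubated 2 hrs at room temperature with d2- and Cryptate-labelled antibodies, then read by HTRF.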

Test [15] concerns KRas-mediated phosphorylation of ERK in H460 cells. Briefly: Inhibition of KRas-mediated phosphorylation of ERK (Cisbio HTRF pERK), H460 cells. It counts as cell-based. To be noted: Homo sapiens; for IC50: NCI-H460, HTRF pERK. In outline:
as §2

Test [16] relates to KRas-mediated phosphorylation of ERK in HCT116 cells. The test can be described thus: Inhibition of KRas-mediated phosphorylation of ERK (Cisbio HTRF pERK), HCT116 cells. In kind it is cell-based. To be noted: Homo sapiens; for IC50: HCT-116, HTRF pERK. In short, it runs like this: as §3
The test system of test [17] is KRas-mediated phosphorylation of ERK in H358 cells. The test can be described thus: Inhibition of KRas-mediated phosphorylation of ERK (Cisbio HTRF pERK), H358 cells. It counts as cell-based. To be noted: Homo sapiens; for IC50: NCI-H358, HTRF pERK. In outline:
as §2

Setting [18] is: single point, 10 nM compound, TR-FRET.

SMILES strings stand for the structures.

T1 sequence (P01116 1-169 isoform P01116-2): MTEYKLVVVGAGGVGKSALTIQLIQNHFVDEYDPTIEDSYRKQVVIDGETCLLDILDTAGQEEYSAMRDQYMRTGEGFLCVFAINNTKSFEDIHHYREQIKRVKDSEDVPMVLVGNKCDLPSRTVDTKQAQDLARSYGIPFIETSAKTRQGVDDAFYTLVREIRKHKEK
T3 sequence (P01116 1-169 isoform P01116-2 G12C): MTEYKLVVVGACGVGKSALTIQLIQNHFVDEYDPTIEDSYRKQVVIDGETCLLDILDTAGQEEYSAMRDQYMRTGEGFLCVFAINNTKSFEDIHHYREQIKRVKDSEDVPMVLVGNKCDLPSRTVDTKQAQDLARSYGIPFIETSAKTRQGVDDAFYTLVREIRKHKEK
T4 sequence (P01116 1-169 isoform P01116-2 G12D): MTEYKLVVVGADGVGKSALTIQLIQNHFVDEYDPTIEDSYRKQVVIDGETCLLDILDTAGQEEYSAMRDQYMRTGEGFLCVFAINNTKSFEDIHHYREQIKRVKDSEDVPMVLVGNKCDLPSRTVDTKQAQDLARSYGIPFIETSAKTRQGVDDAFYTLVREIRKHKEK
T9 sequence (P01116 1-169 isoform P01116-2 Q61H): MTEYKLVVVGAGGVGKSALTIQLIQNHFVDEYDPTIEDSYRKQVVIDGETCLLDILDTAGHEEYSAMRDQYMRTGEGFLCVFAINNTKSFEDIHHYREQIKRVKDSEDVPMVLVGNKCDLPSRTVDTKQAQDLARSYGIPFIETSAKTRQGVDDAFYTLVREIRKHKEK
T7 sequence (P01116 1-169 isoform P01116-2 G12V): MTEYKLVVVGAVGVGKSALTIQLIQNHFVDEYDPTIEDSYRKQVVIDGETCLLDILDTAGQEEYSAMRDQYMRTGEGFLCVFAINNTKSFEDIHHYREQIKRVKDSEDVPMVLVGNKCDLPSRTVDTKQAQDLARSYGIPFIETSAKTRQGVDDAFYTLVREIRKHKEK
T6 sequence (P01116 1-169 isoform P01116-2 G12S): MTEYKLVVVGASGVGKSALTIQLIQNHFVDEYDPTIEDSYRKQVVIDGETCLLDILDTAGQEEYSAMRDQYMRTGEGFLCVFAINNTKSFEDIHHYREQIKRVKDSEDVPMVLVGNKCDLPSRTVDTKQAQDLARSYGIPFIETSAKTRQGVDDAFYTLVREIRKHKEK
T2 sequence (P01116 1-169 isoform P01116-2 G12A): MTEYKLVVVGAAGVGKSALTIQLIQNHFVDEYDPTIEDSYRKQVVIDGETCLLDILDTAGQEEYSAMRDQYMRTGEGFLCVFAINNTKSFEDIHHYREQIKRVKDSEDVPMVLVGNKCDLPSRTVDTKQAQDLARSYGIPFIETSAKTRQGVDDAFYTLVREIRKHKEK
T5 sequence (P01116 1-169 isoform P01116-2 G12R): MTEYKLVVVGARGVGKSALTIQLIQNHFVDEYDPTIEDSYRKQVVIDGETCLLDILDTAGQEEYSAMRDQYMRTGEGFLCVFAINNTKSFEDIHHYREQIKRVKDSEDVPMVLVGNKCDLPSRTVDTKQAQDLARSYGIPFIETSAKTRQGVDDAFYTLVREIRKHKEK
T8 sequence (P01116 1-169 isoform P01116-2 G13D): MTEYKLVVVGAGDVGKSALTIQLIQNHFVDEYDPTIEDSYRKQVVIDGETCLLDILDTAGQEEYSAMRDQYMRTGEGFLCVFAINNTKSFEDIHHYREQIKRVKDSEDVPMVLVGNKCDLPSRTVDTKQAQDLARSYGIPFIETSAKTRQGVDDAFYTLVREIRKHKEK

A word on the inhibition: it is the relative decrease from the control value, in per cent. As usually defined, the IC50 is the concentration that gives 50% inhibition. Take `CCc1c(F)ccc2cc(O)cc(-c3ncc4c(N5CCCC6(C5)NC(=O)NC6=O)nc(OC[C@]56CCCN5[C@H](COC(=O)N(C)C)CC6)nc4c3F)c12` (stereo partly drawn) [Example 709, ((3S,7aR)-7a-(((4-(2,4-dioxo-1,3,7-triazaspiro[4.5]decan-7-yl)-7-(8-ethyl-7-fluoro-3-hydroxynaphthalen-1-yl)-8-fluoropyrido[4,3-d]pyrimidin-2-yl)oxy)methyl)hexahydro-1H-pyrrolizin-3-yl)methyl dimethylcarbamate]: the inhibition at 0.01 µM amounted to 91% in test [1] (setting [18]); 80% in test [2] (setting [18]); 95% in test [3] (setting [18]); 94% in test [6] (setting [18]); 97% in test [8] (setting [18]); 99% in test [9] (setting [18]). The IC50 in [4] was under 2 nM; in test [5], under 2 nM; in [7], under 2 nM; in test [10], 3 nM; in test [11], 253 nM; in test [12], 63 nM. Also, the IC50 in test [13] was found to be 53 nM. The inhibition at 0.1 µM in test [14] (A549, 3 h, single point, 100 nM compound, 3 hrs) stood at 62%; in test [15] (NCI-H460, 3 h, single point, 100 nM compound, 3 hrs), 88%; in test [16] (HCT-116, 3 h, single point, 100 nM compound, 3 hrs), 65%; in test [17] (NCI-H358, 3 h, single point, 100 nM compound, 3 hrs) it was 101%.

Turning to `C[C@@]1(O)CCCN(c2nc(OC[C@@]34CCCN3C[C@H](F)C4)nc3c(F)c(-c4c(C5CC5)c(Cl)cc5[nH]ncc45)ncc23)C1` [Example 880, (3R)-1-(7-(6-chloro-5-cyclopropyl-1H-indazol-4-yl)-8-fluoro-2-(((2R,7aS)-2-fluorotetrahydro-1H-pyrrolizin-7a(5H)-yl)methoxy)pyrido[4,3-d]pyrimidin-4-yl)-3-methylpiperidin-3-ol], the IC50 in test [1] amounted to 11 nM; in test [2] it was 9 nM; in test [3], 7 nM; in test [4], 5 nM; in [5], 12 nM; in [6], 8 nM. Moreover, the IC50 in [7] was 6 nM; in test [8], 7 nM; in test [9] it was 12 nM; in [10], 24 nM; in [11], over 10000 nM; in test [12] it was 153 nM. In addition, the IC50 was 196 nM in test [13]; 176 nM in test [14]; 176 nM in test [15]; 520 nM in [16]; 100 nM in test [17].

As for `C#Cc1c(F)ccc2cc(O)cc(-c3ncc4c(N5CCC[C@@](C)(O)C5)nc(OC[C@@]56CCCN5[C@@H](CO)CC6)nc4c3F)c12` [Example 809, (R)-1-(7-(8-ethynyl-7-fluoro-3-hydroxynaphthalen-1-yl)-8-fluoro-2-(((3R,7aS)-3-(hydroxymethyl)tetrahydro-1H-pyrrolizin-7a(5H)-yl)methoxy)pyrido[4,3-d]pyrimidin-4-yl)-3-methylpiperidin-3-ol], the IC50 was determined as 5 nM in test [1]; 5 nM in test [2]; 3 nM in test [3]; 3 nM in [4]; 5 nM in test [5]; 4 nM in test [6]. Further, the IC50 is 4 nM in test [7]; 3 nM in [8]; 5 nM in test [9]; 57 nM in test [10]; over 10000 nM in [11]; 871 nM in [12]. Also, the IC50 in [13] worked out at 809 nM; in [14], 2560 nM; in test [15], 918 nM; in test [16], 1510 nM; in test [17] it was 228 nM.
